In article PMC4222603, “Dual inhibition of HIV-1 replication by integrase-LEDGF allosteric inhibitors is predominant at the post-integration stage” (Retrovirology, 2013):

Legend:
[1] = system: HxB2 HIV-1; assay: Antiviral assay in MT4 cells infected with HxB2; format: cell-based; conditions: Human immunodeficiency virus 1, HXB2, MT4; Table 1; read-out: HxB2 EC50 (MT4 assays)
[2] = system: NL4-3 IN T174I mutant virus; format: cell-based, HIV-1
[3] = in vitro; format: cell-based; conditions: human
Description: Growth inhibition was monitored in a proliferating human T-cell line (MT-4) with different concentrations of compounds. ATP levels were quantified using the CellTiter-Glo® luminescent reagent (Promega) to measure the ability of a compound to inhibit cell growth, an indication of the compound’s cytotoxicity. Cytotoxicity was evaluated at either day 2 or day 5.

[4] = system: panel of virus mutants in an NL4-3 background resistant to INSTIs and other classes of ARV drugs; conditions: EC50 on resistant virus / EC50 on wt
[5] = system: HIV-1 LAV virions produced by HeLa-LAV cells; assay: Virions produced by compound-treated HeLa-LAV cells: p24 and infectivity; format: cell-based
[6] = target: T1, IN strand transfer activity (Human immunodeficiency virus type 1 group M subtype B, UniProt P12497); assay: IN strand transfer ELISA assay; format: biochemical, HIV-1
T1 construct: loaded on a Superdex 200 16/600 PG column (for full length IN); made in house
Description: IN strand transfer ELISA assay has been adapted from. […] 16 μL of IN mixture (20 mM HEPES pH 7.5, 10 mM MgCl2, 1 mM DTT, 0.50 μM His6-IN) was added. […] The reaction was stopped by addition of 60 μL stop mixture (20 mM Tris–HCl pH 7.6, 0.4 M NaCl, 10 mM Na2EDTA, 0.1 mg/mL salmon sperm DNA) and the volume transferred to Reacti-Bind high-binding capacity streptavidin-coated white plates (Thermo Scientific Pierce). After 1 h incubation at room temperature under gentle shaking, integrase and unjoined DNA were removed by three washes with 200 μL wash solution 1 (30 mM NaOH, 0.2 M NaCl, 1 mM Na2EDTA). 100 μL of 2000-fold diluted HRP-conjugated anti-DIG Fab (Roche Applied Science) was added and the plate was incubated for 1 h at 37°C. Unbound antibody was removed with wash solution 2 (PBS pH 7.4, 0.05% Tween-20, 0.1% bovine serum albumin), 100 μL of SuperSignal Femto ELISA substrate (Thermo Scientific Pierce) was added and chemiluminescence was immediately read in a PHERAstar Plus with LUM-plus module. The signal, converted to % inhibition, was analyzed by fitting a sigmoidal dose–response curve to determine IC50 and the inhibition plateau.

[7] = system: HIV-1 proviral DNA (late reverse transcription product, integrated DNA); assay: Quantification of viral cDNA by real-time PCR in infected MT4 cells; format: cell-based
Description: Prior to infection, viral stocks were treated 1 h at 37°C with 100 U per mL of DNAseI (Roche Applied Science). MT4 cells (6x10^6) were infected with virus at MOI = 0.001. At 7 h, 24 h and 48 h post-infection, cells were harvested, washed twice in PBS and DNA was extracted using the QIAamp Blood DNA Minikit (Qiagen). Quantifications of viral DNA were performed by real-time PCR using the LightCycler 480 system (Roche Applied Science). Primers, probes, and PCR run conditions were described previously. The copy number of HIV-1 late reverse transcription product (LRT) was determined using standard curves obtained by amplification of cloned DNA containing the matched sequences. The copy number of integrated HIV-1 DNA was determined in reference to a standard curve generated by concomitant two-stage PCR amplification of a serial dilution of the standard HeLa HIVR7-Neo cell DNA [59]. Copy numbers of each viral form were normalized with the number of cells obtained by the quantification by PCR of the β-globin gene according to the manufacturer instructions (Roche Applied Science).

[8] = system: NL4-3 RT M41L, D67N, T69N, K70R, T215F, K219E; assay: Antiviral assay on NRTI-resistant virus; format: cell-based, HIV-1; conditions: ratio EC50 resistant virus / wt virus
[9] = system: VSV-G-pseudotyped NL4-3Δenv-luc; assay: microbe, parasite or virus in culture; format: cell-based, HIV-1
[10] = target: IN-LEDGF/p75 interaction (Human immunodeficiency virus type 1 group M subtype B, UniProt P12497); assay: biochemical
Description: IN-LEDGF HTRF® assay was performed in 384-well low volume black polystyrene plates (Corning) using IN-LEDGF assay buffer (25 mM Tris–HCl pH 7.4, 150 mM NaCl, 2 mM MgCl2, 0.4 M KF, 0.1% Igepal CA-630, 0.1% bovine serum albumin, 1 mM DTT). […] The HTRF ratio was converted to % inhibition and analyzed by fitting a sigmoidal dose–response equation with Hill slope to determine the IC50 of the compound.

[11] = system: NL4-3 RT M41L, D67N, K103N, M184V, L210W, T215Y; assay: Antiviral assay on Multi-drug (NRTI + NNRTI) resistant virus; format: cell-based, HIV-1; conditions: ratio EC50 resistant virus / wt virus; NRTI + NNRTI mutations
[12] = system: HIV-1 mutant IN A128T; assay: Antiretroviral activity on HIV-1 mutant IN A128T; format: cell-based

Cc1nc2c(c(-c3ccc4c(c3)CCCO4)c1C(OC(C)(C)C)C(=O)O)CCCC2 (stereo not shown) [Mut101, 2-(tert-butoxy)-2-[4-(3,4-dihydro-2H-1-benzopyran-6-yl)-2-methyl-5,6,7,8-tetrahydroquinolin-3-yl]acetic acid]
EC50 [1]: 0.092 µM | Infectivity of NL4-3 IN T174I virus produced in presence of compound [2]: insensitive | CC50 [3]: > 50 µM | EC50 fold change (FC) ratio against all resistant viruses [4]: ≤ 1 | Virucidal effect on free virus released in supernatant [5]: unable to inactivate free virus | Amount of p24 produced by treated HeLa-LAV cells ([5]; compared with Raltegravir, DMSO or Mut063 treatment): comparable | Infectivity of virions from treated HeLa-LAV cells ([5]; luciferase assay in TZM cells): strong virus infectivity defects | IC50 ([6]; Table 1, ELISA, read-out: IN ST IC50): 0.17 µM | IN ST plateau (%) ([6]; inhibition plateau, concentrations up to 100 μM): 66% | Integration of the proviral DNA (qPCR) [7]: inhibited the integration of the proviral DNA | Production of proviral DNA at reverse transcription (qPCR) [7]: not the production of proviral DNA at reverse transcription | EC50 fold change NRTIs [8]: 1 | SR/MR ratio [9]: 18 | EC50 ([9]; Human immunodeficiency virus 1, NL43, MT4, read-out: NL4-3 EC50 Single-round): 9 ± 1.5 µM | IC50 ([10]; IC50 on IN-LEDGF interaction inhibition, LEDGF competition, increased value, highest LEDGF/p75 competing concentration (range 7.5 nM to 480 nM)): 0.68 µM | IC50 ([10]; IC50 on IN-LEDGF interaction inhibition, LEDGF competition, starting value, lowest LEDGF/p75 competing concentration (range 7.5 nM to 480 nM)): 0.097 µM | IC50 ([10]; IN-LEDGF IC50, Table 1, HTRF, full length proteins): 0.2 µM | EC50 fold change Multi-drug [11]: 1 | ARV activity on HIV-1 mutant IN A128T [12]: full ARV activity
